Assay results as given in patent publication US8530519B2, “Method for promoting upper gastrointestinal bicarbonate secretion” (Sucampo AG, priority 2006, dated 2013).

Key:
[1] = system: male Wistar rats; experiment: Effect on bicarbonate secretion into bile in rats after oral dosing; type: in vivo, rat
Description: The effect of Compound A (13,14-dihydro-15-keto-16,16-difluoro-18(S)-methyl-PGE1) on Gastrointestinal bicarbonate secretion was studied.
Seven weeks old male Wistar rats were used in this study. Compound A at a dose of 100 μg/kg was administered orally to the animals three times daily for 7 days. Control animals received an equal volume of the vehicle (distilled water containing 0.01% polysorbate 80 and 0.5% ethanol). On the next morning of the final administration (about 17 hours after the final administration), a polyethylene catheter (PE10, Becton Dickinson and Company) was inserted into the common bile duct of the animal under ether anesthesia. The animals were placed into a Borrmann's cage individually and allowed to recover from the anesthesia for 1 hour. Bile was collected for 1 hour between 1 and 2 hours after inserting the catheter. The amount of bicarbonate (HCO3^−) in the bile was measured with an automated pH/blood gas analyzer (model 170, Ciba Corning Diagnostics Corp.).

[2] = system: PG receptors such as EP and FP receptors; conditions: Journal of Ocular Pharmacology and Therapeutics 17(5), 433-441, 2001; cited from earlier work

SMILES | amount of bicarbonate secreted into the bile compared with the control group ([1]; 100 μg/kg orally three times daily for 7 days, Wistar rats) | Bicarbonate secretion Mean ± S.E. ([1]; 100 μg/kg p.o., TID for 7 days, bile collected for 1 hour, about 17 hours after the final administration, n=7, *p < 0.05 compared with control group (control 10.16 ± 0.81)) | affinity for PG receptors such as EP and FP receptors [2]
CC[C@H](C)CC(F)(F)C(=O)CC[C@H]1[C@H](O)CC(=O)[C@@H]1CCCCCCC(=O)O [Compound A, 13,14-dihydro-15-keto-16,16-difluoro-18(S)-methyl-PGE1] | increased significantly | 13.33 ± 1.00* μmol/hr/100 g body weight | 
CCCCCCCC(=O)CC[C@@H]1[C@@H](C/C=C\CCCC(=O)OC(C)C)[C@@H](O)C[C@H]1O [unoprostone isopropyl] |  |  | does not have affinity
